Structures are written as SMILES. Where two headings read alike, the source gives them in different places.

The target in data set [1] is T1, progesterone receptor (PR) (Homo sapiens, UniProt P06401).
T1 sequence (P06401 1-933): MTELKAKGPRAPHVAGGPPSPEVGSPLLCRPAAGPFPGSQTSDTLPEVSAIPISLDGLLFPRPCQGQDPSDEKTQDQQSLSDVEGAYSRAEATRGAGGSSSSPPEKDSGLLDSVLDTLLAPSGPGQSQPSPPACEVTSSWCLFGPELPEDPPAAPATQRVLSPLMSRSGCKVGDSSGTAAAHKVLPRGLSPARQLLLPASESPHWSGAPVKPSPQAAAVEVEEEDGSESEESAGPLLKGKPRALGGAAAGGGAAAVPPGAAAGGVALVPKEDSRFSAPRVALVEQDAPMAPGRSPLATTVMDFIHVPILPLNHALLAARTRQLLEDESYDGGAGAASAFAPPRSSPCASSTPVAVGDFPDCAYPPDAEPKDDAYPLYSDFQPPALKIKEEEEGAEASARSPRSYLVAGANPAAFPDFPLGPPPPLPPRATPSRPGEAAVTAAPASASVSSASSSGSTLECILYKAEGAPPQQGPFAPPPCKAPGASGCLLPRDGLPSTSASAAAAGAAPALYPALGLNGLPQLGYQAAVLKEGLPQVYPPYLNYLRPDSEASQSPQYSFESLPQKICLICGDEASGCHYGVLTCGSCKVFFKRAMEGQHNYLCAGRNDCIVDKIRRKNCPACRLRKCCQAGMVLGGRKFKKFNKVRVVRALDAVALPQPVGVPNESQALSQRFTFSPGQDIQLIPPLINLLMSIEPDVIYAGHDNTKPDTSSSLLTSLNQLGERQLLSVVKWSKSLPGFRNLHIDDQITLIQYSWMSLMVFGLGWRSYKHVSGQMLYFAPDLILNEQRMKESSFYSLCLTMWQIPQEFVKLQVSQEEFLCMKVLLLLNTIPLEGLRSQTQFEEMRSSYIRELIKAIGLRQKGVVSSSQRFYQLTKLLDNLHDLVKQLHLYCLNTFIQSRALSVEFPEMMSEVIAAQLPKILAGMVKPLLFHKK
Kind of data set: Progesterone receptor. The format is cell-based.

Data set [2] deals with T2, glucocorticoid receptor (GR) (Homo sapiens, UniProt P04150).
T2 sequence (P04150 1-777): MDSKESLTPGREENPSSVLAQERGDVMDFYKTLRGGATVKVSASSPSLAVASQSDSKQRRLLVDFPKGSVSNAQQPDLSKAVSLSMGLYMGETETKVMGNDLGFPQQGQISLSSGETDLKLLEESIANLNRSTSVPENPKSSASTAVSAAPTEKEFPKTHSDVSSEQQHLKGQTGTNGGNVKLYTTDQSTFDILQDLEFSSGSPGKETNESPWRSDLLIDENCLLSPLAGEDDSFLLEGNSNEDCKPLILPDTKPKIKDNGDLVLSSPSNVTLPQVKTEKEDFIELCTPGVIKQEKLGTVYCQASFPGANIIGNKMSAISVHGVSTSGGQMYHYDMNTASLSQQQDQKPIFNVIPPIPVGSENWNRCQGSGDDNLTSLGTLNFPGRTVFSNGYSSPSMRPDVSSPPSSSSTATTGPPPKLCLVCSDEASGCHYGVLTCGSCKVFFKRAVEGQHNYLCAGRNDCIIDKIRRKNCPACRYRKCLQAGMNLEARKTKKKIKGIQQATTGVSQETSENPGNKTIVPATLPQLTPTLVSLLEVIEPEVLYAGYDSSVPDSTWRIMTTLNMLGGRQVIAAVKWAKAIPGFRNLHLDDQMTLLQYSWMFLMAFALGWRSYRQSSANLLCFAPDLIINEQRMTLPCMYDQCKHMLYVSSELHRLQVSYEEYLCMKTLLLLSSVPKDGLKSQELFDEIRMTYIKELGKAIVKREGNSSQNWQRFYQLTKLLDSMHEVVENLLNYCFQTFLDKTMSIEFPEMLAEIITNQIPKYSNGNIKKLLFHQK
The experiment in a line: Glucocorticoid receptor. The format is cell-based.

The subject of data set [3] is human liver microsomes (HLM). The experiment in a line: Oxidation-glucuronidation assay with HLMs. The format is in vitro ADME.
Setting [4] is: T47D cells, 8 h, 10 nM, versus ethanol.

Turning to `CCC(=O)[C@@]1(C)CC[C@H]2[C@@H]3CCC4=CC(=O)CCC4=C3CC[C@@]21C` [Metabolite R5020], in data set [1] (setting [4]), the “average mRNA fold change E2F1” value is on record as 4.8 ± 0.4 fold change, the “average mRNA fold change FKBP5” value amounted to 9.5 ± 0.3 fold change and the “average mRNA fold change GREB1” value stood at 2.2 ± 0.1 fold change.

As to `C[C@@H]1C[C@H]2[C@@H]3CCC4=CC(=O)C=C[C@]4(C)[C@@]3(F)[C@@H](O)C[C@]2(C)[C@@]1(O)C(=O)CO` [Dexamethasone, dexamethasone], in data set [2] (MDA-MB-231 cells, 4 h, 0.1 μM), the “average mRNA fold change GILZ” value stood at 18.5 fold change and the “average mRNA fold change SGK1” value stood at 5.6 fold change.

Turning to `CC(=O)N1CCN(c2ccc(OCC3COC(Cn4ccnc4)(c4ccc(Cl)cc4Cl)O3)cc2)CC1` (centres unmarked) [ketoconazole], in the data set on HLMs (28 μM MA, ketoconazole 1 μM), the “inhibition of M1” value is 96.2% and the “inhibition of M2” value amounted to 100%. Also, in the data set on HLMs (62 μM MA, ketoconazole 1 μM), the “inhibition of M1” value turned out to be 100% and the “inhibition of M2” value worked out at 100%.

`CC(=O)O[C@]1(C(C)=O)CC[C@H]2[C@@H]3C=C(C)C4=CC(=O)CC[C@]4(C)[C@H]3CC[C@@]21C` [MA, Megestrol acetate]: the “activity on the GR” value in data set [2] (in words) is reported as “showed activity”. Besides, the “pharmacologic activity on the PR” value in data set [1] (in words) is on record as “significant pharmacologic activity”. For the same compound, the “glucuronide formation by HLM” value in data set [3] (UDPGA alone (data not shown)) was “does not form any glucuronides”; in data set [3] (co-incubation with both NADPH and UDPGA, 24 hrs) it was “two glucuronides were detected”.

Regarding `CO[C@H]1C[C@H](O[C@H]2[C@H](C)[C@@H](O[C@@H]3O[C@H](C)C[C@H](N(C)C)[C@H]3OC(C)=O)[C@@H](C)C[C@@]3(CO3)C(=O)[C@H](C)[C@@H](OC(C)=O)[C@@H](C)[C@@H](C)OC(=O)[C@@H]2C)O[C@@H](C)[C@@H]1OC(C)=O` [troleandomycin], the “inhibition of M1” value with HLMs (28 μM MA, troleandomycin 50 μM) is 93.2%; with HLMs (62 μM MA, troleandomycin 50 μM), 94.4%. Besides, the “inhibition of M2” value with HLMs (28 μM MA, troleandomycin 50 μM) is recorded as 100%; in the data set with HLMs (62 μM MA, troleandomycin 50 μM) it was 100%.

Source of the values: paper PMC6129397 (Xenobiotica; the fate of foreign compounds in biological …, 2017).
